Results taken from patent US9416102B2, “(22E)-2-methylene-22-dehydro-1α,24,25-trihydroxy-19-nor-vitamin D3 analogs” (Wisconsin Alumni Research Foundation, priority 2013, dated 2016).

Key:
[1] = system: Human promyelocytic leukemia (HL-60) cells; assay: HL-60 differentiation (nitro blue tetrazolium reduction); type: cell-based; details: relative to 1,25(OH)2D3; FIG. 2
Method: The study drugs were dissolved in ethanol and the concentrations determined using UV spectrophotometry. Serial dilutions were prepared so that a range of drug concentrations could be tested without changing the final concentration of ethanol (≦0.2%) present in the cell cultures.
Human promyelocytic leukemia (HL-60) cells were grown in RPMI-1640 medium containing 10% fetal bovine serum. The cells were incubated at 37° C. in the presence of 5% CO2.
HL-60 cells were plated at 1.2×10^5 cells/ml. Eighteen hours after plating, cells in duplicate were treated with drug. Four days later, the cells were harvested and a nitro blue tetrazolium reduction assay was performed (Collins et al., 1979; J. Exp. Med. 149:969-974). The percentage of differentiated cells was determined by counting a total of 200 cells and recording the number that contained intracellular black-blue formazan deposits. Verification of differentiation to monocytic cells was determined by measuring phagocytic activity (data not shown).

[2] = target: T1, Full-length recombinant rat receptor (vitamin D receptor, VDR) (Rattus norvegicus, UniProt P13053); assay: Vitamin D receptor competitive binding; details: relative to 1,25(OH)2D3, FIG. 1; for competition for binding to the VDR compared to the native hormone: in words
T1 construct: Full-length recombinant rat receptor was expressed in E. coli; histidine tag (C); made in house; host or cells: E. coli BL21(DE3) Codon Plus RIL
T1 sequence (P13053 1-423): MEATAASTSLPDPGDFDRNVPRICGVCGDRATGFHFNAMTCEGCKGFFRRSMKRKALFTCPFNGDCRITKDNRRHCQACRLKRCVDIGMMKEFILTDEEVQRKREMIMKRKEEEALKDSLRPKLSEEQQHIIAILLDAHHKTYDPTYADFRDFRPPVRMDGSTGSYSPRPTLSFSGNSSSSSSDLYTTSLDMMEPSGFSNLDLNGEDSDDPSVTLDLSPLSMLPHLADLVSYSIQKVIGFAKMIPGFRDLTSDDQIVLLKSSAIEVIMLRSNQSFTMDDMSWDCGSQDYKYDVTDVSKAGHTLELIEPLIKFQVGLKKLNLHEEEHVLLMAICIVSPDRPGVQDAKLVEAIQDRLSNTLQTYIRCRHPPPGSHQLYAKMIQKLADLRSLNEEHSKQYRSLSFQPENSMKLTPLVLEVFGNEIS
Text: Vitamin D Receptor Binding
Full-length recombinant rat receptor was expressed in E. coli BL21(DE3) Codon Plus RIL cells and purified to homogeneity using two different column chromatography systems. The first system was a nickel affinity resin that utilizes the C-terminal histidine tag on this protein. The protein that was eluted from this resin was further purified using ion exchange chromatography (S-Sepharose Fast Flow). Aliquots of the purified protein were quick frozen in liquid nitrogen and stored at −80° C. until use. For use in binding assays, the protein was diluted in TEDK50 (50 mM Tris, 1.5 mM EDTA, pH 7.4, 5 mM DTT, 150 mM KCl) with 0.1% Chaps detergent. The receptor protein and ligand concentration was optimized such that no more than 20% of the added radiolabeled ligand was bound to the receptor.
Unlabeled ligands were dissolved in ethanol and the concentrations determined using UV spectrophotometry (1,25(OH)2D3: molar extinction coefficient=18,200 and 1max=265 nm; Analogs: molar extinction coefficient=42,000 and 1max=252 nm). Radiolabeled ligand (^3H-1,25(OH)2D3, ˜159 Ci/mmole) was added in ethanol at a final concentration of 1 nM.
Radiolabeled and unlabeled ligands were added to 100 mcl of the diluted protein at a final ethanol concentration of ≦10%, mixed and incubated overnight on ice to reach binding equilibrium. The following day, 100 mcl of hydroxylapatite slurry (50%) was added to each tube and mixed at 10-minute intervals for 30 minutes. The hydroxyapaptite was collected by centrifugation and then washed three times with Tris-EDTA buffer (50 mM Tris, 1.5 mM EDTA, pH 7.4) containing 0.5% Titron X-100. After the final wash, the pellets were transferred to scintillation vials containing 4 ml of Biosafe II scintillation cocktail, mixed and placed in a scintillation counter. Total binding was determined from the tubes containing only radiolabeled ligand.

[3] = system: 24-hydroxylase (24OHase) gene promoter; assay: In vitro transcription assay (luciferase reporter in ROS 17/2.8 cells); type: cell-based; details: FIG. 3; for stimulation of gene transcription compared to the native hormone: in words
Method: In Vitro Transcription Assay
Transcription activity was measured in ROS 17/2.8 (bone) cells that were stably transfected with a 24-hydroxylase (24OHase) gene promoter upstream of a luciferase reporter gene (Arbour et al., 1998). Cells were given a range of doses. Sixteen hours after dosing the cells were harvested and luciferase activities were measured using a luminometer. RLU=relative luciferase units.

[4] = system: ovariectomized (OVX) Sprague-Dawley female rats; assay: Ovariectomized rat model, bone strength testing (3-point bending); type: in vivo; details: 60 ng/kg body weight once daily for 17 weeks, FIG. 6
Method: Virgin Sprague-Dawley female rats were either sham-operated or ovariectomized (OVX) at 4 months of age by the vendor (Harlan). Starting at 16 weeks post-surgery, the animals were given vehicle or test analog (WT or 2MD) once daily for 17 weeks. Bone mineral density (BMD) and serum and urinary calcium levels were assessed periodically throughout the study. At termination, femurs were collected for bone strength testing (3-point bending, Numira Biosciences).

Compound | promoting HL-60 cell differentiation, times more potent than the native hormone [1] | competition for binding to the VDR compared to the native hormone [2] | binding to the vitamin D receptor (VDR), times less active than the natural hormone [2] | stimulation of gene transcription compared to the native hormone [3] | stimulating gene transcription from the 24OHase gene promoter, times more effective than the natural hormone ([3]; relative to 1,25(OH)2D3) | bone strength compared to 2MD at 2.5 ng/kg body weight [4]
C=C1[C@H](O)CC(=C/C=C2\CCC[C@]3(C)[C@@H]([C@H](C)/C=C/[C@@H](O)C(C)(C)O)CC[C@@H]23)C[C@H]1O [WT-51, (22E)-(24R)-2-methylene-22-dehydro-1α,24,25-trihydroxy-19-nor-vitamin D3] | approximately 10 × | one log less than the native hormone | approximately 10 × | nearly one log more potent than the native hormone | approximately 10 × | improves bone strength in ovariectomized rats to the same degree as 2MD
C=C1[C@H](O)CC(=C/C=C2\CCC[C@]3(C)[C@@H]([C@H](C)/C=C/[C@H](O)C(C)(C)O)CC[C@@H]23)C[C@H]1O [WT-52, (22E)-(24S)-2-methylene-22-dehydro-1α,24,25-trihydroxy-19-nor-vitamin D3] | – | one log less than the native hormone | approximately 10 × | approximately the same activity as the native hormone | – | –
